Reference: patent US20090318461A1, “CRYSTALLINE POLYMORPHISM OF 5-METHYL-2-(PIPERAZIN-1-YL) BENZENESULFONIC ACID” (priority 2006, published 2009)
Values belong to the compound of their own block, whether it stands above or below them.

Experiments:
[1] = Thermal analysis (DSC822e) of monohydrate crystals; format: physicochemical; settings: 25-300° C., 20° C./min, dry nitrogen gas
Procedure: In Examples 3, 4 and Experimental Examples 5, 6, each crystal forms was confirmed by powder X-ray diffractometer (manufactured by Bruker) GADDS detector system and thermal analysis equipment (manufactured by Mettler-Toledo) DSC822e system.
For thermal analysis, the measurement was performed in a dry nitrogen gas stream (50 mL/min) from 25° C. to 300° C. at a temperature rise rate of 20° C./min.
Using the solids obtained in Examples 3 and 4 as sample 8 (type-II monohydrate crystal) and sample 9 (type-III monohydrate crystal), respectively, the thermal analysis was performed under the following conditions.
apparatus: DSC822e manufactured by Metter-Toledo temperature rise rate: 20° C./min atmosphere: dry nitrogen gas 50 mL/min measurement temperature: 25-300° C.

[2] = Measurement of moisture sorption at each relative humidity (water vapor sorption apparatus SGA-100); format: physicochemical; settings: for moisture sorption (weight increase) at relative humidity 50%: 50% RH; for hygroscopicity: from moisture sorption isotherm; for weight change when humidity was reduced from 95% RH to 5% RH after moisture absorption: humidity decrease 95% RH to 5% RH
Procedure: In the present invention, when moisture sorption at each relative humidity becomes not more than 0.03% in 5 min, or when 3 hours have passed at each relative humidity, the range of relative humidity being from 0% to 95%, the humidity is increased or decreased at 5% intervals, and the moisture sorption isotherms at each relative humidity is obtained gravimetrically by measuring the mass change of a sample.
The above-mentioned moisture sorption can be measured using, for example, SGA-100 type water vapor sorption apparatus (manufactured by VTI) as shown in the Examples. While the error in the relative humidity values depends on the performance of the apparatus, it is about ±1% using this apparatus.
The “moisture sorption” in the present invention refers to the values calculated by the following equation:
moisture sorption (%)=((RM−DM)/DM))*100
wherein DM: sample weight (mg) after sufficient drying at relative humidity 0% RM: sample weight (mg) in the equilibrium state at various relative humidities
For moisture sorption isotherms, when weight variation under each relative humidity condition becomes not more than 0.03% in 5 min, or when 3 hours have passed at each relative humidity, the range of relative humidity being from 0% to 95%, the humidity is increased or decreased at 5% intervals, and the moisture sorption isotherms at each relative humidity is obtained gravimetrically by measuring the mass change of a sample. The “RH” in the preset Examples means “relative humidity”.
5-Methyl-2-(piperazin-1-yl)benzenesulfonic acid monohydrate was dried for 60 min by heating in a sample booth at 80° C. under nitrogen substitution. The sample was used as sample 7 (type-I anhydrate crystal), and measured for moisture sorption from 5% RH.
The sample 2 (type-II anhydrate crystal) obtained in Example 2 was dried for 60 min by heating in a sample booth at 80° C. under nitrogen substitution, and measured for moisture sorption from 5% RH.

cardiomyocytes = settings: cited from earlier work
[3] = humidity increase from 5% RH to 95% RH

crystal stability by thermal analysis (no noticeable endothermic and exothermic peaks up to around 80° C.) [1]: stable
Compound: Cc1ccc(N2CCNCC2)c(S(=O)(=O)O)c1 [type-II monohydrate crystal, 5-methyl-2-(piperazin-1-yl)benzenesulfonic acid monohydrate]

moisture sorption in the range of 0-50% RH ([2]; 0-50% RH, humidity increase from 5% RH to 95% RH): about 2.0%
moisture sorption (weight increase) at relative humidity 50% [2, 3]: not more than 2%
weight increase around 60% RH ([2]; around 60% RH, humidity increase from 5% RH to 95% RH): about 6.5%
hygroscopicity [2]: less hygroscopic
hygroscopicity ([2]; listed as sample 2): hardly present
weight change when humidity was reduced from 95% RH to 5% RH after moisture absorption [2]: weight change was not observed
Compound: Cc1ccc(N2CCNCC2)c(S(=O)(=O)O)c1 [type-II anhydrate crystal, 5-methyl-2-(piperazin-1-yl)benzenesulfonic acid anhydrate]

Compound: Cc1ccc(N2CCNCC2)c(S(=O)(=O)O)c1 [compound A, 5-methyl-2-(piperazin-1-yl)benzenesulfonic acid]
suppression of excessive influx of calcium ions into cardiomyocytes (cardiomyocytes): remarkably suppresses

moisture sorption (weight increase) at relative humidity 50% ([2]; humidity increase from 5% RH to 95% RH, listed as sample 7): about 6.0%
weight change when humidity was reduced from 95% RH to 5% RH after moisture absorption [2]: weight change was not observed
relative humidity from which moisture absorption was shown [2, 3]: 10 % RH
Compound: Cc1ccc(N2CCNCC2)c(S(=O)(=O)O)c1 [type-I anhydrate crystal, 5-methyl-2-(piperazin-1-yl)benzenesulfonic acid anhydrate]
